Key:
Format in all cases: in vivo
[1] = test system: Corynespora cassiicora; assay: Test Example 5: penetration effect against cucumber leaf spot with different surfactant concentrations; conditions: isofetamid 200 ppm without component (b); abaxial inoculation after 3 days
Description: Cucumber (cultivar: […] The cucumber was cultivated in a greenhouse for 3 days, and the leaf abaxial side was sprayed and inoculated with a suspension of conidia of Corynespora cassiicora, and the cucumber was kept under humidified chamber conditions at 23° C. for 24 hours. […] a: lesion area ratio in treated plot, b: lesion area ratio in non-treated plot

[2] = test system: Corynesbora cassiicora; assay: Test Example 3: curative effect against cucumber leaf spot; conditions: inoculated 24 hours before treatment; isofetamid 400 ppm + product 0.05 wt %, 1,000 L/ha; examined 7 days after inoculation
Source text: Cucumber (cultivar: […] The leaf was air-dried, and an isofetamid 400 ppm solution prepared by adding an aqueous solution (0.05 wt %) of each of products containing the component (b) as identified in Table 3 to isofetamid, was applied by means of a spray gun in an amount corresponding to 1,000 L/ha. […] a: lesion area ratio in treated plot, b: lesion area ratio in non-treated plot

[3] = test system: Corynespora cassiicora; assay: Test Example 7: residual effect against cucumber leaf spot; conditions: isofetamid 200 ppm + product 0.05 wt %, four-leaf stage, 1,000 L/ha; inoculation after 7 days
Description: Cucumber (cultivar: […] After the chemical solution dried, the cucumber was cultivated in a greenhouse for 7 days, and the cucumber was sprayed and inoculated with a suspension of conidia of Corynespora cassiicora, and kept under humidified chamber conditions at 23° C. for 24 hours. Thereafter, the cucumber was cultivated in a room at 20° C. under illumination for 7 days. The lesion area ratio on the first leaf was examined, and the control value was calculated based on the following formula. The obtained results are shown in Table 7. […] a: lesion area ratio in treated plot, b: lesion area ratio in non-treated plot

[4] = test system: Sphaerotheca fulidinea; assay: Test Example 4: rainfastness against cucumber powdery mildew; conditions: isofetamid 200 ppm + product 0.05 wt %, 1,000 L/ha; after 2 days rainfall 40 mm per hour for one hour, then adaxial inoculation
Description: Cucumber (cultivar: […] After the chemical solution dried, the cucumber was cultivated in a greenhouse for 2 days, and rainfall treatment (rainfall intensity: 40 mm per hour) was carried out by means of an artificial rainfall apparatus for one hour, and after drying, the leaf adaxial surface was sprayed and inoculated with a suspension of conidia of Sphaerotheca fulidinea, and the cucumber was cultivated in a room at 20° C. under illumination for 7 days. The lesion area ratio on the adaxial surface of the first leaf was examined, and the control value was calculated based on the following formula. […] a: lesion area ratio in treated plot, b: lesion area ratio in non-treated plot

[5] = test system: Sphaerotheca fulidinea; assay: Test Example 1: penetration effect against cucumber powdery mildew; conditions: isofetamid 400 ppm + product 0.05 wt %, leaf adaxial surface, 1,000 L/ha, abaxial inoculation after 4 days, No addition = without component (b)
Description: Cucumber (cultivar: Sagamihanjiro Fushinari) was cultivated in a polyethylene pot having a diameter of 7.5 cm, and when the cucumber reached 1.5-leaf stage, an isofetamid 400 ppm solution prepared by adding an aqueous solution (0.05 wt %) of each of products containing the component (b) as identified in Tables 1-1 to 1-6 to isofetamid, was applied to the leaf adaxial surface by means of a spray gun in an amount of 1,000 L/ha (20 ml/0.2 m^2). After the chemical solution dried, the cucumber was cultivated in a greenhouse for 4 days, the leaf abaxial surface was sprayed and inoculated with a suspension of conidia of Sphaerotheca fulidinea, and the cucumber was cultivated in a room at 22° C. under illumination for 7 to 8 days. The lesion area ratio on the abaxial surface of the first leaf was examined, and the control value was calculated based on the following formula. In Tables, “no addition” means the above treatment without adding the component (b) (the same applies hereinafter). Control value=(1−a/b)×100
(§1) a: lesion area ratio in treated plot, b: lesion area ratio in non-treated plot

[6] = test system: Sphaerotheca fulidinea; assay: Test Example 6: penetration effect against cucumber powdery mildew; conditions: isofetamid 400 ppm + product 0.025 wt %, leaf adaxial surface, 1,000 L/ha; abaxial inoculation after 4 days
Source text: Cucumber (cultivar: Sagamihanjiro Fushinari) was cultivated in a polyethylene pot having a diameter of 7.5 cm, and when the cucumber reached 1.5-leaf stage, an isofetamid 400 ppm solution prepared by adding an aqueous solution (0.025 wt %) of each of products containing the component (b) as identified in Table 6 to isofetamid was applied to the leaf adaxial surface by means of a spray gun in an amount corresponding to 1,000 L/ha. The cucumber was cultivated in a greenhouse for 4 days, and then the leaf abaxial side was sprayed and inoculated with a suspension of conidia of Sphaerotheca fulidinea, and the cucumber was cultivated in a room at 22° C. under illumination for 7 days. The lesion area ratio on the abaxial side of the first leaf was examined, and the control value was calculated based on the following formula. Control value=(1−a/b)×100
as §1

[7] = test system: Corynesbora cassiicora; assay: Test Example 2: penetration effect against cucumber leaf spot; conditions: isofetamid 400 ppm + product 0.05 wt %, leaf adaxial surface, 1,000 L/ha; abaxial inoculation after 4 days; examined 7 days after inoculation
Source text: Cucumber (cultivar: Natsusuzumi) was cultivated in a polyethylene pot having a diameter of 7.5 cm, and when the cucumber reached 1.5-leaf stage, an isofetamid 400 ppm solution prepared by adding an aqueous solution (0.05 wt %) of each of products containing the component (b) as identified in Table 2 to isofetamid, was applied to the leaf adaxial surface by means of a spray gun in an amount corresponding to 1,000 L/ha. The cucumber was cultivated in a greenhouse for 4 days, and the leaf abaxial surface was sprayed and inoculated with a suspension of conidia of Corynesbora cassiicora, and the cucumber was kept under humidified chamber conditions at 23° C. for 24 hours. Thereafter, the cucumber was kept in a thermostatic chamber at 20° C., and 7 days after the inoculation, the lesion area ratio on the first leaf was examined, and the control value was calculated based on the following formula. Control value=(1−a/b)×100

Question: What does the source list for `Cc1cc(OC(C)C)ccc1C(=O)C(C)(C)NC(=O)c1sccc1C` [No addition, isofetamid]?
Answer: Control value [1]: 66.7; Control value [2]: 0; Control value [3]: 80; Control value [4]: 62; Control value ([5]; Table 1-1): 0; Control value ([5]; Table 1-2): 6; Control value ([5]; Table 1-3): 4; Control value ([5]; Table 1-4): 11; Control value ([5]; Table 1-5): 14; Control value ([5]; Table 1-6): 68; Control value [6]: 54.6; Control value [7]: 68

Reference: patent US11412733B2, “Method for enhancing plant disease controlling effects of isofetamid and method for controlling plant diseases” (ISHIHARA SANGYO KAISHA, LTD., priority 2016, dated 2022)
